Reference: US20260159511A1, “SMALL MOLECULE STING ANTAGONISTS” (CURADEV PHARMA PVT. LTD., priority 2021, published 2026)

Test system: IRF pathway in THP1-Dual™ cells, THP-1 (HAQ)
Test: Reporter gene expression assay in THP-1 cells (THP1-Dual, IRF pathway Lucia luciferase reporter, 2′,3′-cGAMP stimulation)
Assay type: cell-based, human
Settings: Homo sapiens; THP1-Dual cells preincubated with compound 10 minutes, stimulation with 5 μM 2′,3′-cGAMP for 20 hr, QUANTI-Luc readout of the supernatant; read-out: THP-1 (HAQ) Activity (IC50 value range)
In short: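 THP-1-derived THP1-Dual cells (5×10^4) preincubated with compound for 10 minutes, then stimulated with 5 μM 2′,3′-cGAMP. After 20 hr, secreted Lucia luciferase (IRF pathway reporter) measured in supernatant by luminescence.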

Row | IC50 [nM] | SMILES
1 | < 1000 | O=C(Nc1ccc2c(c1)N(Cc1cc(F)cc(Cl)c1)CCS2)Nc1c[nH]c2ccc(F)cc12 [Example 101, 1-(4-(3-chloro-5-fluorobenzyl)-3,4-dihydro-2H-benzo[b][1,4]thiazin-6-yl)-3-(5-fluoro-1H-indol-3-yl)urea]
2 | < 1000 | Cc1nc(N2CCSc3ccc(NC(=O)Nc4c[nH]c5ccccc45)cc32)ccc1F [Example 102, 1-(4-(5-Fluoro-6-methylpyridin-2-yl)-3,4-dihydro-2H-benzo[b][1,4]thiazin-6-yl)-3-(1H-indol-3-yl)urea]
3 | < 1000 | O=C(Nc1ccc2c(c1)N(c1ccccc1)CCS2)Nc1c[nH]c2ccccc12 [Example 103, 1-(1H-indol-3-yl)-3-(4-phenyl-3,4-dihydro-2H-benzo[b][1,4]thiazin-6-yl)urea]
4 | < 1000 | O=C(Nc1ccc2c(c1)SCCN2c1ccccc1)Nc1c[nH]c2ccccc12 [Example 104, 1-(1H-indol-3-yl)-3-(4-phenyl-3,4-dihydro-2H-benzo[b][1,4]thiazin-7-yl)urea]
5 | < 1000 | O=C(Nc1ccc2c(c1)N(c1ccccn1)CCS2)Nc1c[nH]c2ccccc12 [Example 105, 1-(1H-indol-3-yl)-3-(4-(pyridin-2-yl)-3,4-dihydro-2H-benzo[b][1,4]thiazin-6-yl)urea]
6 | < 1000 | O=C(Nc1ccc2c(c1)N(c1cccc(F)n1)CCS2)Nc1c[nH]c2ccccc12 [Example 106, 1-(4-(6-fluoropyridin-2-yl)-3,4-dihydro-2H-benzo[b][1,4]thiazin-6-yl)-3-(1H-indol-3-yl)urea]
7 | < 1000 | C[C@H]1c2ccc(NC(=O)Nc3c[nH]c4ccccc34)cc2N(Cc2ccccc2)C(=O)N1C [Example 107, (S)-1-(1-Benzyl-3,4-dimethyl-2-oxo-1,2,3,4-tetrahydroquinazolin-7-yl)-3-(1H-indol-3-yl)urea]
8 | 1000 to 10000 | C[C@H]1c2ccc(NC(=O)Nc3c[nH]c4ccccc34)cc2N(Cc2c(F)ccc(O)c2Cl)C(=O)N1C [Example 108, (S)-1-(1-(2-chloro-6-fluoro-3-hydroxybenzyl)-3,4-dimethyl-2-oxo-1,2,3,4-tetrahydroquinazolin-7-yl)-3-(1H-indol-3-yl)urea]
9 | < 1000 | N#Cc1ccc2[nH]cc(NC(=O)Nc3ccc4c(c3)N(Cc3ccccc3)CCS4)c2c1 [Example 109, 1-(4-benzyl-3,4-dihydro-2H-benzo[b][1,4]thiazin-6-yl)-3-(5-cyano-1H-indol-3-yl)urea]
10 | < 1000 | Cc1cc(CN2CCSc3ccc(NC(=O)Nc4c[nH]c5ccc(F)cc45)cc32)on1 [Example 110, 1-(5-fluoro-1H-indol-3-yl)-3-(4-((3-methylisoxazol-5-yl)methyl)-3,4-dihydro-2H-benzo[b][1,4]thiazin-6-yl)urea]
11 | < 1000 | CC1CN(Cc2cc(F)cc(Cl)c2)c2cc(NC(=O)Nc3c[nH]c4ccc(F)cc34)ccc2S1 (stereo not drawn) [Example 111, 1-(4-(3-chloro-5-fluorobenzyl)-2-methyl-3,4-dihydro-2H-benzo[b][1,4]thiazin-6-yl)-3-(5-fluoro-1H-indol-3-yl)urea]
12 | < 1000 | O=C(Nc1ccc2c(c1)N(Cc1ccccc1)C(=O)CS2)Nc1c[nH]c2ccc(Br)cc12 [Example 112, 1-(4-benzyl-3-oxo-3,4-dihydro-2H-benzo[b][1,4]thiazin-6-yl)-3-(5-bromo-1H-indol-3-yl)urea]
